Experimental data as given in US20180303807A1, “ANDROGEN RECEPTOR LIGANDS” (DUKE UNIVERSITY, priority 2015, published 2018).

Columns and labels:
Assay type in all cases: cell-based
[1] = biological target: T1, AR (Homo sapiens, UniProt P10275); assay: Reporter gene assay, AR transcriptional (MMTV-Luc) in CV1 cells; conditions: pcDNA-AR + MMTV-Luc, 0.1 nM R1881 plus test compound, 24 hrs, read-out: B1 = AR transcriptional IC50 (μM) in CV1 cells
T1 construct: expressed in transfected cells; host or cells: CV1 cells
T1 sequence (P10275 1-920): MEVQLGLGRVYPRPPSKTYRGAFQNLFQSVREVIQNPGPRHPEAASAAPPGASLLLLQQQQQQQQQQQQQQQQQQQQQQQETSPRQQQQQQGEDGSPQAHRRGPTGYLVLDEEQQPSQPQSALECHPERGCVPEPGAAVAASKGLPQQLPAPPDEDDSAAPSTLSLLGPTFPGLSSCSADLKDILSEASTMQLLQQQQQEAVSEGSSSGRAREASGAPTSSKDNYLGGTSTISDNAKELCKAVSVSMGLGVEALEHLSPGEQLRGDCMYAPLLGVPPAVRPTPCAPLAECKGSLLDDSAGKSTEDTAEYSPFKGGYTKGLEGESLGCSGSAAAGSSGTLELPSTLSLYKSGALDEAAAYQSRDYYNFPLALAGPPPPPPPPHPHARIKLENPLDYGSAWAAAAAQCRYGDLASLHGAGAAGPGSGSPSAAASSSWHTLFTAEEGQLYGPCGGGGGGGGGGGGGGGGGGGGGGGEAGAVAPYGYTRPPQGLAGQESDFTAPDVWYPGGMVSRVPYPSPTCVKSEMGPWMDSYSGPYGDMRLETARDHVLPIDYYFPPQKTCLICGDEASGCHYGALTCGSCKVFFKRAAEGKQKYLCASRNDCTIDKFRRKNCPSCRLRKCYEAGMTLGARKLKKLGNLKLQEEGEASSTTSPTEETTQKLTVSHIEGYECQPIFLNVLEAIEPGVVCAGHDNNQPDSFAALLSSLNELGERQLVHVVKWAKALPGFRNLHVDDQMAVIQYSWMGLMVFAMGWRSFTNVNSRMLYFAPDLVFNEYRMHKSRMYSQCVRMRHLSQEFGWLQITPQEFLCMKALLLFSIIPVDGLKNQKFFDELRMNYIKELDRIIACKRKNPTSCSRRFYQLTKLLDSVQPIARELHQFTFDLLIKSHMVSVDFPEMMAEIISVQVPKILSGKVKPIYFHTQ
Procedure, shortened: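 CV1 cells transiently co-transfected with human AR, MMTV-Luc reporter and Renilla-Luc (transfection efficiency and toxicity read-out), then stimulated 24 h with 0.1 nM R1881 plus increasing test compound concentrations. Firefly and Renilla luciferase quantified by dual-luciferase assay; IC50 derived from concentration-response.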

[2] = system: CV1 cells; assay: Toxicity of test compound in the CV1 reporter gene assay (Renilla-Luc)
[3] = system: AR; assay: Real-time PCR of AR target gene transcription in LNCaP-AR (AR overexpressing) cells, CRPC model; set-up: key to B5 = Relative antagonist activity (plus 0.1 nM R1881) of test compounds (20 μM) in AR overexpressing LNCaP cells (NKX3.1 AR target gene) / B7 = Relative antagonist activity (plus 0.1 nM R1881) of test compounds (20 μM) in AR overexpressing LNCaP cells (PSA AR target gene): a score of 1 indicates higher antagonist efficacy (highly desired activity) than benchmark compound enzalutamide; a score of 2 indicates equal antagonist efficacy to enzalutamide (desirable); a score of 3 indicates antagonist efficacy between enzalutamide and bicalutamide (less desirable activity); a score of 4 indicates antagonist efficacy equal to bicalutamide (liability); a score of 5 indicates antagonist efficacy worse than bicalutamide (liability); key to B4 = Relative agonist activity (no R1881) of test compounds (20 μM) in AR overexpressing LNCaP cells (NKX3.1 AR target gene) / B6 Relative agonist activity (no R1881) of test compounds (20 μM) in AR overexpressing LNCaP cells (PSA AR target gene): a score of 1 indicates less agonism (highly desired activity) than benchmark compound enzalutamide; a score of 2 indicates equal agonism to enzalutamide (desirable); a score of 3 indicates agonism between enzalutamide and bicalutamide (less desirable activity); a score of 4 indicates equal agonism to bicalutamide (liability); a score of 5 indicates higher agonism than bicalutamide (liability); conditions: 20 μM, score vs enzalutamide/bicalutamide; for B4 = Relative agonist activity (no R1881) of test compounds (20 μM) in AR overexpressing LNCaP cells (NKX3.1 AR target gene): no R1881, NKX3.1 gene; for B5 = Relative antagonist activity (plus 0.1 nM R1881) of test compounds (20 μM) in AR overexpressing LNCaP cells (NKX3.1 AR target gene): plus 0.1 nM R1881, NKX3.1 gene; for B7 = Relative antagonist activity (plus 0.1 nM R1881) of test compounds (20 μM) in AR overexpressing LNCaP cells (PSA AR target gene): plus 0.1 nM R1881, PSA gene
Procedure: Real-Time PCR (CRPC model of AR overexpressing prostate cancer cells, Table 2, B4-B7). LNCaP-AR (AR overexpressing cells) cells were seeded in 12-well plates in RPMI 1640 (8% charcoal-stripped fetal calf serum (CFS)). […] AR target gene transcription (PSA, NKX3.1, FKBP5) was assessed by realtime PCR.
For B4-B7, scoring system is based on the relative AR target gene agonist/antagonist activity of test compounds when compared to benchmark compounds enzalutamide or bicalutamide. […] The lack of agonist activity is desirable for therapies intended to treat CRPC. For B4 and B6, a score of 1 indicates less agonism (highly desired activity) than benchmark compound enzalutamide, a score of 2 indicates equal agonism to enzalutamide (desirable), a score of 3 indicates agonism between enzalutamide and bicalutamide (less desirable activity), a score of 4 indicates equal agonism to bicalutamide (liability), and a score of 5 indicates higher agonism than bicalutamide (liability). For B5 and B7 a score of 1 indicates higher antagonist efficacy (highly desired activity) than benchmark compound enzalutamide, a score of 2 indicates equal antagonist efficacy to enzalutamide (desirable), a score of 3 indicates antagonist efficacy between enzalutamide and bicalutamide (less desirable activity), a score of 4 indicates antagonist efficacy equal to bicalutamide (liability), and a score of 5 indicates antagonist efficacy worse than bicalutamide (liability) For B9, Compounds that degrade AR (greater than 50% degradation at 10 μM) are indicated.

## O=C1CCCC2=C1C(c1ccc([N+](=O)[O-])cc1)c1c(ccc3ccccc13)N2 (stereo not drawn) [Compound A1, 12-(4-nitrophenyl)-8,9,10,12-tetrahydrobenzo[a]acridin-11(7H)-one]
[1]
  IC50: 4.4 µM
[2]
  B2 = % Toxicity of test compound (20 μM): 32%
  B3 = % Toxicity of test compound (60 μM): 87%
[3]
  B4 = Relative agonist activity (no R1881) of test compounds (20 μM) in AR overexpressing LNCaP cells (NKX3.1 AR target gene): 1
  B6 Relative agonist activity (no R1881) of test compounds (20 μM) in AR overexpressing LNCaP cells (PSA AR target gene): 1
  B5 = Relative antagonist activity (plus 0.1 nM R1881) of test compounds (20 μM) in AR overexpressing LNCaP cells (NKX3.1 AR target gene): 2
  B7 = Relative antagonist activity (plus 0.1 nM R1881) of test compounds (20 μM) in AR overexpressing LNCaP cells (PSA AR target gene): 2

## O=C1CCCC2=C1Nc1ccc3ccccc3c1C2c1ccc([N+](=O)[O-])cc1 (stereo not drawn) [Compound A10]
[1]
  IC50: 5.7 µM
[2]
  B2 = % Toxicity of test compound (20 μM): 17%
  B3 = % Toxicity of test compound (60 μM): 88%
[3]
  B4 = Relative agonist activity (no R1881) of test compounds (20 μM) in AR overexpressing LNCaP cells (NKX3.1 AR target gene): 2
  B6 Relative agonist activity (no R1881) of test compounds (20 μM) in AR overexpressing LNCaP cells (PSA AR target gene): 1
  B5 = Relative antagonist activity (plus 0.1 nM R1881) of test compounds (20 μM) in AR overexpressing LNCaP cells (NKX3.1 AR target gene): 2
  B7 = Relative antagonist activity (plus 0.1 nM R1881) of test compounds (20 μM) in AR overexpressing LNCaP cells (PSA AR target gene): 1

## CC1CC(=O)C2=C(C1)Nc1ccc3ccccc3c1C2c1ccc(F)cc1 (stereo not drawn) [Compound A4]
[1]
  IC50: 2.6 µM
[2]
  B2 = % Toxicity of test compound (20 μM): 0%
  B3 = % Toxicity of test compound (60 μM): 51%
[3]
  B4 = Relative agonist activity (no R1881) of test compounds (20 μM) in AR overexpressing LNCaP cells (NKX3.1 AR target gene): 1
  B6 Relative agonist activity (no R1881) of test compounds (20 μM) in AR overexpressing LNCaP cells (PSA AR target gene): 1
  B5 = Relative antagonist activity (plus 0.1 nM R1881) of test compounds (20 μM) in AR overexpressing LNCaP cells (NKX3.1 AR target gene): 1
  B7 = Relative antagonist activity (plus 0.1 nM R1881) of test compounds (20 μM) in AR overexpressing LNCaP cells (PSA AR target gene): 1
